Where “and” joins values, the source holds several entries; their conditions need not be identical. Equal entries are not always repeated. Structures can show the parent of a compound that is named as a salt. Where two headings read alike, the source gives them in different places.
Key:
[1] = parameters: method as in PMID 35930706; conditions: cited from earlier work; for Cmax / Tmax / t(1/2) / AUC0–t: released DPTIP in plasma, CES1−/− mice, PO 10 mg/kg DPTIP or equivalent, previously published
[2] = parameters: method as in PMID 30531925, PMID 30921693; conditions: cited from earlier work
[3] = In vitro stability in dog plasma; format: in vitro ADME; conditions: 37 °C; for remaining at 1 h, 10 μM: dog, 60 min, read-out: In Vitro Stability in Plasma (% Remaining at 60 min) Mean ± SEM (n = 3), Dogs; for In Vitro Stability in Plasma (% Remaining at 60 min) Mean ± SEM (n = 3), Dogs: 10 μM
Protocol: (§1) The in vitro metabolic stability analysis of DPTIP prodrugs was performed in the plasma of mice, dogs, and humans, as previously described. Briefly, for plasma stability, 1 mL of plasma was spiked with 10 μM of the respective prodrug followed by incubation in an orbital shaker at 37 °C for 1 h (in triplicate). The samples from each incubation at predetermined time points (0 and 60 min) was quenched with 3× volume of acetonitrile containing the internal standard (IS; losartan: 0.5 μM). The samples were vortex-mixed for 30 s and centrifuged at 10,000× g for 10 min at 4 °C. Compound disappearance over time was monitored via a Dionex ultra-high-performance LC system coupled with a Q Exactive Focus orbitrap mass spectrometer (Thermo Fisher Scientific Inc., Waltham, MA, USA). Quantification of the prodrugs was performed in full scan mode (from m/z 75 to 1125) by comparing t = 0 min samples with t = 60 min samples.

[4] = Pharmacokinetic study in dogs, released DPTIP in plasma after IV or peroral dose; format: in vivo, male Beagle dogs
Protocol: The PK studies in dogs were performed in accordance with the guidelines recommended by Pharmaron (San Diego, CA, USA) Institutional Animal Care and Use Committee. Briefly, male Beagle dogs 9 to 11 kg were obtained from the test facility’s colony of non-naïve animals. The animals were fasted overnight prior to dose administration and fed 4 h after dosing. The body weights were recorded and the animals were dosed with DPTIP, and prodrugs 2, 3, 4, 6, 7, 8, and 9 at 2 mg/kg equivalent of DPTIP as a single preoral dose PO (n = 2) with the exception of DPTIP IV dosed at 1 mg/kg (n = 1). All drugs were dissolved in the formulations (5% NMP, 5% Kolliphor, 30% PEG, and 60% water v/v) made freshly prior to dosing. The blood samples were collected via a cephalic vein at specified time points (0.083, 0.25, 0.5, 1, 2, 4, 6, 8, and 24 h) post-drug administration, and transferred into tubes containing sodium fluoride as a stabilizer (10 µL/mL of 500 µg/mL). The tubes were stored on wet ice until processed to plasma by centrifugation (3500× g at 4 °C for 10 min) within 30 min of collection. The plasma samples were transferred into individually labeled matrix tubes and stored at nominal −80 °C immediately (within 10 min of separation) until bioanalysis.
The quantification of the released DPTIP was performed using our previously published method with minor modifications. Briefly, calibration standards were prepared by spiking the DPTIP into naïve plasma from mice and dogs. All the calibration curves were constructed in the range of 1–3000 pmol/mL in the naïve sample-matched matrices in both the mouse and dog samples. Linear regression with 1/(nominal concentration) weighting factor was used for fitting the calibration curve. A correlation coefficient greater than 0.99 was considered acceptable in the analytical runs for all analyses.
The plasma samples from both mice and dogs were processed through simple protein precipitation. For this, 20 µL of plasma was mixed with 100 µL methanol containing 0.5 µM losartan (internal standards; IS) in low retention microcentrifuge tubes. All samples were vortex-mixed and centrifuged at 16,000× g for 5 min at 4 °C. A 50 µL of aliquot of supernatant was diluted with 50 µL of LC-MS water transferred to a 96-well polypropylene autosampler sealed with a Teflon cap. A volume of 2 µL was injected onto the ultra-performance liquid chromatography instrument for quantitative analysis using a temperature-controlled autosampler operating at 4 °C. Chromatographic separation was performed using a Thermo Scientific Vanquish ultra-high-performance system consisting of an analytical pump and coupled with a TSQ Altis mass spectrometer. The analytes were separated using an Agilent Eclipse Plus column (100 × 2.1 mm i.d, 1.8 μm) maintained at 35 °C. The (M+H)^+ ion transition of DPTIP (m/z 378.85 → 363.07, 200.05) and losartan (IS) (m/z 423.2 → 207.10, 180.88) were used. A gradient method was used with a mobile phase composition of 0.1% formic acid in acetonitrile and 0.1% formic acid in water.
The plasma concentrations (pmol/mL) for the mice were quantified, and plots of mean plasma concentration versus time were constructed using GraphPad Prism (10.3.0). Similarly, plasma concentrations (pmol/mL) for the dogs were measured and corresponding mean plasma concentration versus time plots were generated. The plasma concentrations in both mice and dogs were analyzed using a noncompartmental analysis method as implemented in the computer software program Phoenix WinNonlin version 8.4 (Certara USA Inc., Princeton, NJ, USA). The maximum plasma concentration (Cmax) and time to Cmax (Tmax) were the observed values. The area under the plasma concentration–time curve (AUC) values were calculated to the last quantifiable sample (AUC0–t) using the log-linear trapezoidal rule. The oral bioavailability was calculated by AUCPO divided by AUC IV with dose normalization. […]

[5] = test system: nSMase2; conditions: cited from earlier work
[6] = In vitro stability in human plasma; format: in vitro ADME; conditions: 37 °C; for remaining at 1 h, 10 μM: human, 60 min, read-out: In Vitro Stability in Plasma (% Remaining at 60 min) Mean ± SEM (n = 3), Humans; for In Vitro Stability in Plasma (% Remaining at 60 min) Mean ± SEM (n = 3), Humans: 10 μM
Protocol: as §1

[7] = test system: rat brain nSMase2; parameters: method as in PMID 33395289; conditions: cited from earlier work
[8] = Pharmacokinetic study in CES1−/− mice, released DPTIP in plasma after peroral dose; format: in vivo, C57BL/6 CES1−/− mice; conditions: PO 10 mg/kg DPTIP equivalent
Protocol: In vivo mice PK studies were carried out as previously described. Briefly, mice PK studies were carried out in CES1^−/− mice according to protocols approved by the Animal Care and Use Committee at Johns Hopkins University. The C57BL/6 CES1^−/^− mice were received from the United States Army Medical Research Institute of Chemical Defense, Maryland, and maintained on a 12 h light−dark cycle with ad libitum access to food and water. Prodrugs 3, 4, 5, 6, 8, and 9 were administered at a dose of 10 mg/kg equivalent of DPTIP to CES1^−/− mice as a single peroral (PO) dose made fresh in formulation (5% DMSO, 10% tween, and 85% saline v/v/v) prior to dosing. […]
The quantification of the released DPTIP was performed using our previously published method with minor modifications. […]
The plasma samples from both mice and dogs were processed through simple protein precipitation. […] A volume of 2 µL was injected onto the ultra-performance liquid chromatography instrument for quantitative analysis using a temperature-controlled autosampler operating at 4 °C. […]
The plasma concentrations (pmol/mL) for the mice were quantified, and plots of mean plasma concentration versus time were constructed using GraphPad Prism (10.3.0). Similarly, plasma concentrations (pmol/mL) for the dogs were measured and corresponding mean plasma concentration versus time plots were generated. […]

[9] = parameters: method as in PMID 35930706; conditions: CES1−/− mouse plasma, 10 μM, 37 °C, previously published; cited from earlier work
[10] = In vitro stability in mouse plasma; format: in vitro ADME; conditions: CES1−/−, 37 °C, 60 min, read-out: In Vitro Stability in Plasma (% Remaining at 60 min) Mean ± SEM (n = 3), Mice
Protocol: as §1

[11] = parameters: method as in PMID 8593015; conditions: valine ester prodrug, transport via PEPT1 in the intestine; cited from earlier work

Compound: COc1cc(-c2nc(-c3cccs3)c(-c3ccccc3)[nH]2)cc(OC)c1O [DPTIP, 2,6-dimethoxy-4-(5-phenyl-4-(thiophen-2-yl)-1H-imidazol-2-yl)-phenol]
- Cmax [1]: 307 ± 93.9 nM
- Tmax [1]: 0.25 h
- t(1/2) [1]: 0.46 h
- half-life (t1/2) ([2]; as given in abstract): ≤ 0.5 h
- half-life ([2]; mice): < 0.5 h
- oral bioavailability (%F) ([2]; mice): < 5%
- remaining at 1 h, 10 μM [3]: > 90%
- t(1/2) ([4]; IV 1 mg/kg (n = 1), 1 mg/kg): 3.71 h
- clearance ([4]; male, Beagle, dog, plasma, IV 1 mg/kg, read-out: clearance (CL)): 12 mL/min/kg
- C0 ([4]; male, Beagle, dog, plasma, IV 1 mg/kg, read-out: initial plasma concentration (C0)): 2500 nM
- Vd ([4]; male, Beagle, dog, plasma, IV 1 mg/kg, read-out: volume of distribution (Vd)): 3.8 L/kg
- half-life ([4]; male, Beagle, dog, plasma, iv, 1 mg/kg, IV 1 mg/kg (n = 1)): 3.7 h
- AUC(0-t) ([4]; male, Beagle, dog, plasma, iv, 1 mg/kg, IV 1 mg/kg, read-out: exposures (AUC0–t)): 3.9 µM·h
- Cmax ([4]; male, Beagle, dog, plasma, iv, 1 mg/kg, IV 1 mg/kg, read-out: maximum plasma concentration (Cmax)): 2400 nM
- AUC(0-t) ([4]; male, Beagle, dog, plasma, iv, 1 mg/kg, IV 1 mg/kg, value dose adjusted to 2 mg/kg, read-out: AUC0–t): 7.81 µM·h
- Cmax ([4]; male, Beagle, dog, plasma, iv, 1 mg/kg, IV 1 mg/kg, value dose adjusted to 2 mg/kg, read-out: Cmax): 4800 nM
- IC50 [5]: 30 nM
- remaining at 1 h, 10 μM [6]: > 90%

Compound: O=C(/C=C/c1ccc(/C=C/C(=O)Nc2ccc(C3=NCCN3)cc2)cc1)Nc1ccc(C2=NCCN2)cc1 [GW4869]
- IC50 [7]: 1000 nM

Compound: COc1cc(-c2nc(-c3ccccc3)c(-c3cccs3)[nH]2)cc(OC)c1OC(=O)N1CCC(N2CCCCC2)CC1 [Prodrug 2]
- AUC0–t [1]: 273 ± 36.8 pmol·h/mL
- Cmax [1]: 149 ± 9.9 nM
- Tmax [1]: 1 h
- t(1/2) [1]: 1.4 h
- remaining at 1 h, 10 μM [3]: > 90%
- remaining at 1 h, 10 μM [6]: > 90%

Compound: CCCCCC(=O)Oc1c(OC)cc(-c2nc(-c3ccccc3)c(-c3cccs3)[nH]2)cc1OC [Prodrug 3]
- fold increase in DPTIP half-life compared to DPTIP [8]: no significant improvement
- In Vitro Stability in Plasma (% Remaining at 60 min) Mean ± SEM (n = 3), Dogs [3]: 62.9 ± 7.2%
- remaining at 1 h, 10 μM [3]: ~60%
- In Vitro Stability in Plasma (% Remaining at 60 min) Mean ± SEM (n = 3), Humans [6]: 79.3 ± 1.4%
- remaining at 1 h, 10 μM [6]: ~80%

Compound: COc1cc(-c2nc(-c3ccccc3)c(-c3cccs3)[nH]2)cc(OC)c1OC(=O)N(C)C [Prodrug 4]
- remaining at 1 h, 10 μM [3]: > 90%
- remaining at 1 h, 10 μM [6]: > 90%

Compound: CCCCCN(C)C(=O)Oc1c(OC)cc(-c2nc(-c3ccccc3)c(-c3cccs3)[nH]2)cc1OC [Prodrug 5]
- In Vitro Stability in Plasma (% Remaining at 60 min) Mean ± SEM (n = 3), Dogs [3]: 49.5 ± 1.0%
- remaining at 1 h, 10 μM [3]: 40 to 77%
- In Vitro Stability in Plasma (% Remaining at 60 min) Mean ± SEM (n = 3), Mice [9]: 59.9 ± 5.8 %
- In Vitro Stability in Plasma (% Remaining at 60 min) Mean ± SEM (n = 3), Humans [6]: 42.3 ± 2.1%
- remaining at 1 h, 10 μM [6]: 40 to 77%

Compound: COc1cc(-c2nc(-c3ccccc3)c(-c3cccs3)[nH]2)cc(OC)c1OCOP(=O)(O)O [Prodrug 6]
- fold increase in DPTIP half-life compared to DPTIP [8]: no significant improvement
- remaining at 1 h, 10 μM [3]: > 90%
- remaining at 1 h, 10 μM [6]: > 90%

Compound: CCC1CC(N2CCCCC2)CC(CC)N1C(=O)Oc1c(OC)cc(-c2nc(-c3ccccc3)c(-c3cccs3)[nH]2)cc1OC (centres unmarked) [Prodrug 7]
- fold increase in DPTIP plasma exposure (AUC0–t) compared to DPTIP ([1]; mice, PO): > 4 fold and 4 fold
- AUC0–t [1]: 1047 ± 101 ^α pmol·h/mL
- Cmax [1]: 191 ± 39.6 nM
- Tmax [1]: 2 h
- t(1/2) [1]: 2.7 h
- remaining at 1 h, 10 μM [3]: > 90%
- remaining at 1 h, 10 μM [6]: > 90%

Compound: COc1cc(-c2nc(-c3ccccc3)c(-c3cccs3)[nH]2)cc(OC)c1OC(=O)[C@@H](N)C(C)C [Prodrug 8, 2,6-Dimethoxy-4-(4-phenyl-5-(thiophen-2-yl)-1H-imidazol-2-yl) phenyl L-valinate hydrochloride]
- remaining at 1 h, 10 μM [3]: ~0%
- remaining at 1 h, 10 μM [6]: ~0%

Compound: COc1cc(-c2nc(-c3ccccc3)c(-c3cccs3)[nH]2)cc(OC)c1OC(=O)[C@@H](NC(=O)[C@@H](N)C(C)C)C(C)C [Prodrug 9]
- In Vitro Stability in Plasma (% Remaining at 60 min) Mean ± SEM (n = 3), Dogs [3]: 76.3 ± 1.8%
- In Vitro Stability in Plasma (% Remaining at 60 min) Mean ± SEM (n = 3), Humans [6]: 76.4 ± 1.4%
- remaining at 1 h, 10 μM [10]: 40 to 77%

Compound: CC(C)[C@H](N)C(=O)OCCOCn1cnc2c(=O)[nH]c(N)nc21 [valacyclovir]
- fold increase in oral bioavailability [11]: 3–5 fold

Source: paper PMC11768932, “Pharmacokinetic Evaluation of Neutral Sphinghomyelinase2 (nSMase2) Inhibitor Prodrugs in Mice and Dogs” (Pharmaceutics, 2024)
